The source of these data is patent US3940382A, “1,2'-Di-N-substituted kanamycin B compounds” (Zaidan Hojin Biseibutsu Kagaku Kenkyu Kai, priority 1973, dated 1976).

Assay [1] relates to kanamycin-resistant bacteria. The settings on record: some kanamycin-resistant bacteria; cited from earlier work.
In assay [2] the test system is ribostamycin-resistant bacteria. The settings on record: some ribostamycin-resistant bacteria; cited from earlier work.
Assay [3] concerns Escherichia coli JR66/W677. The settings on record: strain adenylylating the 2"-hydroxyl group; cited from earlier work.
Assay [4] deals with Klebsiella pneumoniae PCI 602. Nature of the assay: MIC, serial dilution on nutrient agar. The settings on record: PCI602; Klebsiella pneumoniae PCI 602; nutrient agar, 37°C, 18 hours; read-out: Minimum Inhibitory Concentrations. In kind it is cell-based.
In assay [5] the test system is Staphylococcus aureus Smith. Nature of the assay: MIC, serial dilution on nutrient agar. In kind it is cell-based. The settings on record: Staphylococcus aureus Smith; nutrient agar, 37°C, 18 hours; read-out: Minimum Inhibitory Concentrations.
Assay [6] concerns Salmonella enteritidis 1891. Kind of assay: MIC, serial dilution on nutrient agar. It is filed as cell-based. The settings on record: Salmonella enterica, ENTERITIDIS, 18 h, read-out: Minimum Inhibitory Concentrations.
Assay [7] concerns drug-resistant bacteria. The settings on record: cited from earlier work.
For assay [8], the system named is Escherichia coli K-12 ML 1410. Nature of the assay: MIC, serial dilution on nutrient agar. The settings on record: Escherichia coli, K12ML1410, 18 h, read-out: Minimum Inhibitory Concentrations. In kind it is cell-based.
Assay [9] relates to Escherichia coli LA290 R55. Kind of assay: MIC, serial dilution on nutrient agar. It is filed as cell-based. The settings on record: LA290R55, 18 h, read-out: Minimum Inhibitory Concentrations.
Assay [10] concerns Escherichia coli K-12 ML 1629. Nature of the assay: MIC, serial dilution on nutrient agar. In kind it is cell-based. The settings on record: K12ML1629; Escherichia coli K-12 ML 1629; nutrient agar, 37°C, 18 hours; read-out: Minimum Inhibitory Concentrations.
The test system of assay [11] is Pseudomonas aeruginosa TI-13. Kind of assay: MIC, serial dilution on nutrient agar. The settings on record: Pseudomonas aeruginosa, TI13, 18 h, read-out: Minimum Inhibitory Concentrations. In kind it is cell-based.
The test system of assay [12] is Escherichia coli NIHJ. Nature of the assay: MIC, serial dilution on nutrient agar. It is filed as cell-based. The settings on record: Escherichia coli NIHJ; nutrient agar, 37°C, 18 hours; read-out: Minimum Inhibitory Concentrations.
Assay [13] deals with Bacillus subtilis NRRL B-558. Kind of assay: MIC, serial dilution on nutrient agar. In kind it is cell-based. The settings on record: NRRLB558; Bacillus subtilis NRRL B-558; nutrient agar, 37°C, 18 hours; read-out: Minimum Inhibitory Concentrations.
The subject of assay [14] is Staphylococcus aureus Terejima. Kind of assay: MIC, serial dilution on nutrient agar. In kind it is cell-based. The settings on record: Staphylococcus aureus Terejima; nutrient agar, 37°C, 18 hours; read-out: Minimum Inhibitory Concentrations.
Assay [15] deals with Bacillus subtilis PCI 219. Kind of assay: MIC, serial dilution on nutrient agar. It is filed as cell-based. The settings on record: PCI219; Bacillus subtilis PCI 219; nutrient agar, 37°C, 18 hours; read-out: Minimum Inhibitory Concentrations.
The subject of assay [16] is Escherichia coli K-12 ML 1630. Nature of the assay: MIC, serial dilution on nutrient agar. It is filed as cell-based. The settings on record: K12ML1630, 37°C, 18 hours, read-out: Minimum Inhibitory Concentrations. A digest of the protocol:
(§1)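 Agar serial dilution in nutrient agar medium, 37°C. MIC (mcg/ml) read after 18 h incubation.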

Assay [17] has as its system Shigella flexneri 4b JS 11811. Kind of assay: MIC, serial dilution on nutrient agar. In kind it is cell-based. The settings on record: 4BJS11811, 37°C, 18 hours, read-out: Minimum Inhibitory Concentrations. A digest of the protocol:
as §1

The test system of assay [18] is Shigella sonnei JS 11746. Kind of assay: MIC, serial dilution on nutrient agar. It is filed as cell-based. The settings on record: JS11746, 37°C, 18 hours, read-out: Minimum Inhibitory Concentrations. A digest of the protocol:
as §1

Assay [19] has as its system Sarcina lutea PCI 1001. Nature of the assay: MIC, serial dilution on nutrient agar. It is filed as cell-based. The settings on record: Micrococcus luteus, PCI1001; Sarcina lutea PCI 1001; nutrient agar, 37°C, 18 hours; read-out: Minimum Inhibitory Concentrations.
Assay [20] has as its system Escherichia coli LA290 R56. Kind of assay: MIC, serial dilution on nutrient agar. It is filed as cell-based. The settings on record: LA290R56, 18 h, read-out: Minimum Inhibitory Concentrations.
The test system of assay [21] is Escherichia coli JR66/W677. Kind of assay: MIC, serial dilution on nutrient agar. It is filed as cell-based. The settings on record: Escherichia coli JR66/W677; nutrient agar, 37°C, 18 hours; read-out: Minimum Inhibitory Concentrations.
Assay [22] deals with kanamycin-resistant strains. The settings on record: strains phosphorylating the 3'-hydroxyl group of kanamycins; cited from earlier work.
The test system of assay [23] is Escherichia coli LA290 R64. Nature of the assay: MIC, serial dilution on nutrient agar. It is filed as cell-based. The settings on record: LA290R64, 18 h, read-out: Minimum Inhibitory Concentrations.
Assay [24] relates to Pseudomonas aeruginosa GN315. Kind of assay: MIC, serial dilution on nutrient agar. It is filed as cell-based. The settings on record: Pseudomonas aeruginosa GN315; nutrient agar, 37°C, 18 hours; read-out: Minimum Inhibitory Concentrations.
Assay [25] concerns Klebsiella pneumoniae 22 -3038. Kind of assay: MIC, serial dilution on nutrient agar. It is filed as cell-based. The settings on record: 223038; Klebsiella pneumoniae 22 -3038; nutrient agar, 37°C, 18 hours; read-out: Minimum Inhibitory Concentrations.
The subject of assay [26] is Escherichia coli W677. Nature of the assay: MIC, serial dilution on nutrient agar. In kind it is cell-based. The settings on record: Escherichia coli W677; nutrient agar, 37°C, 18 hours; read-out: Minimum Inhibitory Concentrations.
In assay [27] the test system is Bacillus cereus ATCC 10702. Nature of the assay: MIC, serial dilution on nutrient agar. In kind it is cell-based. The settings on record: ATCC10702; Bacillus cereus ATCC 10702; nutrient agar, 37°C, 18 hours; read-out: Minimum Inhibitory Concentrations.
For assay [28], the system named is Proteus vulgaris OX 19. Nature of the assay: MIC, serial dilution on nutrient agar. The settings on record: OX19; Proteus vulgaris OX 19; nutrient agar, 37°C, 18 hours; read-out: Minimum Inhibitory Concentrations. In kind it is cell-based.
The test system of assay [29] is Pseudomonas aeruginosa 99. Kind of assay: MIC, serial dilution on nutrient agar. It is filed as cell-based. The settings on record: Pseudomonas aeruginosa 99; nutrient agar, 37°C, 18 hours; read-out: Minimum Inhibitory Concentrations.
Assay [30] has as its system Mycobacterium smegmatis ATCC 607. Nature of the assay: MIC, serial dilution on nutrient agar. In kind it is cell-based. The settings on record: Mycolicibacterium smegmatis, ATCC607; Mycobacterium smegmatis ATCC 607; nutrient agar, 37°C, 18 hours; read-out: Minimum Inhibitory Concentrations.
The subject of assay [31] is Shigella dysenteriae JS 11910. Kind of assay: MIC, serial dilution on nutrient agar. The settings on record: JS11910, 18 h, read-out: Minimum Inhibitory Concentrations. In kind it is cell-based.
The test system of assay [32] is Bacillus anthracis. Nature of the assay: microbe, parasite or virus in culture. The settings on record: 18 h, read-out: Minimum Inhibitory Concentrations. It is filed as cell-based.
The test system of assay [33] is Staphylococcus aureus FDA 209P. Nature of the assay: MIC, serial dilution on nutrient agar. In kind it is cell-based. The settings on record: FDA209P; Staphylococcus aureus FDA 209P; nutrient agar, 37°C, 18 hours; read-out: Minimum Inhibitory Concentrations.
The test system of assay [34] is Pseudomonas aeruginosa No.12. Kind of assay: MIC, serial dilution on nutrient agar. In kind it is cell-based. The settings on record: Pseudomonas aeruginosa No.12; nutrient agar, 37°C, 18 hours; read-out: Minimum Inhibitory Concentrations.
Assay [35] deals with Salmonella typhosa T-63. Nature of the assay: MIC, serial dilution on nutrient agar. It is filed as cell-based. The settings on record: Salmonella enterica, 18 h, read-out: Minimum Inhibitory Concentrations.
In assay [36] the test system is Escherichia coli K-12 ML 1410 R81. Kind of assay: MIC, serial dilution on nutrient agar. It is filed as cell-based. The settings on record: 18 h, read-out: Minimum Inhibitory Concentrations.
Assay [37] has as its system Pseudomonas aeruginosa A3. Nature of the assay: MIC, serial dilution on nutrient agar. The settings on record: Pseudomonas aeruginosa, A3, 18 h, read-out: Minimum Inhibitory Concentrations. It is filed as cell-based.
Assay [38] deals with Corynebacterium bovis 1810. Nature of the assay: MIC, serial dilution on nutrient agar. In kind it is cell-based. The settings on record: Corynebacterium bovis 1810; nutrient agar, 37°C, 18 hours; read-out: Minimum Inhibitory Concentrations.
The subject of assay [39] is Escherichia coli K-12. Kind of assay: MIC, serial dilution on nutrient agar. It is filed as cell-based. The settings on record: K12; Escherichia coli K-12; nutrient agar, 37°C, 18 hours; read-out: Minimum Inhibitory Concentrations.

Values after ≈ are worked out from the molar mass of the structure shown.

Regarding `NCC[C@H](O)C(=O)N[C@@H]1C[C@H](N)[C@@H](O[C@H]2O[C@H](CN)[C@@H](O)[C@H](O)[C@H]2N)[C@H](O[C@@H]2O[C@H](CO)[C@@H](O)[C@H]2O)[C@H]1O` [butirosin B, 1-N-[(S)-α-hydroxy-γ-amino-n-butyryl]-ribostamycin], the “activity against kanamycin-resistant bacteria” value in assay [1] is “active”. The “activity against ribostamycin-resistant bacteria” value in assay [2] is on record as “active”.

Take `NC[C@@H]1CC[C@@H](N)[C@@H](O[C@H]2[C@H](O)[C@@H](O[C@H]3O[C@H](CO)[C@@H](O)[C@H](N)[C@H]3O)[C@H](N)C[C@@H]2N)O1` [DKB, 3',4'-dideoxykanamycin B, reference compound]: the “activity against kanamycin-resistant strains such as Escherichia coli JR66/W677” value in assay [3] was “practically inactive”. The MIC was 0.39 µg/mL (≈ 0.864 µM) in assay [4]; below 0.2 µg/mL in assay [5]; 1.56 µg/mL (≈ 3.45 µM) in assay [6]; 1.56 µg/mL (≈ 3.45 µM) in [8]; 50 µg/mL (≈ 111 µM) in [9]; 0.78 µg/mL (≈ 1.73 µM) in [10]. For the same compound, the MIC in [11] was 1.56 µg/mL (≈ 3.45 µM); in assay [12], 0.39 µg/mL (≈ 0.864 µM); in [13], below 0.2 µg/mL; in assay [14], below 0.2 µg/mL; in assay [15] it was below 0.2 µg/mL; in [16] it was 0.78 µg/mL (≈ 1.73 µM). The MIC came to 1.56 µg/mL (≈ 3.45 µM) in [17]; 0.78 µg/mL (≈ 1.73 µM) in assay [18]; 6.25 µg/mL (≈ 13.8 µM) in assay [19]; 12.5 µg/mL (≈ 27.7 µM) in [20]; 50 µg/mL (≈ 111 µM) in [21]; 6.25 µg/mL (≈ 13.8 µM) in [23]. The MIC in assay [24] is above 100 µg/mL; in assay [25], 100 µg/mL (≈ 221 µM); in [26] it was 0.2 µg/mL (≈ 0.443 µM); in assay [27], 0.78 µg/mL (≈ 1.73 µM); in assay [28] it was below 0.2 µg/mL; in [29] it was 3.13 µg/mL (≈ 6.93 µM). For the same compound, the MIC in [30] is 0.39 µg/mL (≈ 0.864 µM); in [31], 1.56 µg/mL (≈ 3.45 µM); in assay [32], below 0.2 µg/mL; in [33], below 0.2 µg/mL; in assay [34], 0.78 µg/mL (≈ 1.73 µM); in assay [35], below 0.2 µg/mL. In addition, the MIC in [36] stood at 1.56 µg/mL (≈ 3.45 µM); in [37] it was 1.56 µg/mL (≈ 3.45 µM); in assay [38], 3.13 µg/mL (≈ 6.93 µM); in assay [39], 0.78 µg/mL (≈ 1.73 µM). The “antibacterial activity against the drug-resistant bacteria” value in assay [7] is recorded as “improved antibacterial activity”. Besides, in [22], the “effectiveness against kanamycin-resistant strains” value is “actually effective”.
